The numbers were not newly measured in patent US8283154B2, “Method of decontaminating polluted environments with bacteria on a porous support” (National Institute for Agro-Environmental Sciences …, priority 2005, dated 2012), which cites them from elsewhere.

Each structure is given as a SMILES string.

For `Clc1c(Cl)c(Cl)c(Cl)c(Cl)c1Cl` [HCB, hexachlorobenzene], the aqueous solubility is on record as 0.005 ppm.
